Target: reactive oxygen species generated in kidney membrane (NADPH oxidase)
Experiment: Inhibition of reactive oxygen species generation in kidney membrane (lucigenin-based assay)
Assay type: biochemical, rat (Rattus norvegicus)
Details: 37° C. for 10 minutes, luminescence, compounds at 40, 10, 2.5, 0.625, 0 μM
Protocol: A kidney was isolated from a rat (Rattus norvegicus) and washed with phosphate buffered saline (PBS). The tissue was soaked in 20 mL of PBS buffer containing a protease inhibitor (Aprotinin 1 μg/mL-USB 11388, Leupeptin 1 μg/mL-USB-18413), finely disrupted using a mixer, and then transferred to a 50 mL conical tube (SPL 50050), followed by centrifugation at 10000 g for 10 minutes (MF-600 plus, Hanil) to sediment the undisrupted tissue. The supernatant was separated and collected in a fresh tube. The tube was placed in ice and subjected to sonication about 4 times each cycle for 30 seconds until the supernatant became clear (Branson Digital Sonifier, Model CE Converter 102C). The supernatant was transferred to a high-speed centrifugation tube (Beckman 331372) and then centrifuged at 100000 g for 1 hour (Optima™ L-90 K Preparative Ultracentrifuge, SW41Ti rotor, Beckman). After the supernatant was discarded, the remaining pellet was washed once with cold PBS and dissolved in 500 μL of cold PBS containing a protease inhibitor to obtain a murine kidney membrane.
Reactive oxygen species generated in the thus-obtained kidney membrane was analyzed by a lucigenin-based assay.
Specifically, each of the compounds synthesized in Examples of the present invention (40 μM, 10 μM, 2.5 μM, 0.625 μM, and 0 μM) was placed in a luminescence assay microplate, and the isolated kidney membrane and lucigenin were sequentially added thereto, followed by incubation at 37° C. for 10 minutes. Then, the intensity of luminescence was measured in a luminometer (MicroLumatPlus LB96V Microplate Luminometer, Berthold) to assay the generation of reactive oxygen species in the murine kidney membrane, followed by calculating an EC50 value of the inventive compounds.

EC50 | SMILES
7.5 µM | Oc1cc(COc2ccccc2)nn1-c1ccccn1 [Compound 6a, 3-(phenoxymethyl)-1-(pyridin-2-yl)-1H-pyrazol-5-ol]
0.5 µM | Oc1cc(C=Cc2ccc(C(F)(F)F)cc2)nn1-c1ccccn1 [Compound 9f, 3-(4-trifluoromethylstyryl)-1-(pyridin-2-yl)-1H-pyrazol-5-ol]
0.9 µM | CC(C)(C)[Si](C)(C)Oc1ccc(/C=C/c2cc(O)n(-c3ccccn3)n2)cc1 [Compound 9g]
0.5 µM | COc1ccc(C=Cc2cc(O)n(-c3ccccn3)n2)cc1 [Compound 9b, 3-(4-methoxystyryl)-1-(pyridin-2-yl)-1H-pyrazol-5-ol]
10 µM | Oc1cc(CCc2ccccc2)nn1-c1ccccn1 [Compound 3d, 3-phenethyl-1-(pyridin-2-yl)-1H-pyrazol-5-ol]
1.8 µM | Oc1cc(COc2ccc(Cl)cc2Cl)nn1-c1ccccn1 [Compound 6d, 3-((2,4-dichlorophenoxy)methyl)-1-(pyridin-2-yl)-1H-pyrazol-5-ol]
1.5 µM | Oc1cc(Cc2ccc(Cl)cc2)nn1-c1ccccn1 [Compound 3e, 3-(p-chlorobenzyl)-1-(pyridin-2-yl)-1H-pyrazol-5-ol]
0.5 µM | Oc1cc(C=Cc2ccccc2)nn1-c1ccccn1 [Compound 9a, 1-(pyridin-2-yl)-3-styryl-1H-pyrazol-5-ol]
0.4 µM | Oc1cc(COc2ccc3ccccc3c2)nn1-c1ccccn1 [Compound 6b, 3-((naphthalen-3-yloxy)methyl)-1-(pyridin-2-yl)-1H-pyrazol-5-ol]
1.7 µM | Oc1cc(C=Cc2ccc(Cl)c(Cl)c2)nn1-c1ccccn1 [Compound 9d, 3-(3,4-dichlorostyryl)-1-(pyridin-2-yl)-1H-pyrazol-5-ol]
1.5 µM | Oc1ccc(C=Cc2cc(O)n(-c3ccccn3)n2)cc1 [Compound 9k, 3-(4-hydroxystyryl)-1-(pyridin-2-yl)-1H-pyrazol-5-ol]
0.6 µM | COc1ccc(C=Cc2cc(O)n(-c3ccccn3)n2)cc1OC [Compound 9c, 3-(3,4-dimethoxystyryl)-1-(pyridin-2-yl)-1H-pyrazol-5-ol]

Reference: patent US8637674B2, “Pyrazole derivatives, preparation method thereof, and composition for prevention and treatment of osteoporosis containing same” (EWHA University-Industry Collaboration Foundation, priority 2009, dated 2014)
